Experimental data reported in US8952024B2, “Herbicidal pyrimidone derivatives” (E I du Pont de Nemours and Company, priority 2009, dated 2015).

How the values were obtained:
Format in all cases: in vivo
[1] = test system: windgrass (Apera spica-venti); experiment: Test B postemergence plant response; settings: Postemergence
Procedure, shortened: (§1)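 Visual ratings from 0 (no effect) to 100 (complete control), made against controls 13–15 days after treatment, kept in a greenhouse. Compounds were applied postemergence to potted plants at the 1- to 4-leaf stage (2–18 cm).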

[2] = test system: winter barley (Hordeum vulgare); experiment: Test B postemergence plant response; settings: Postemergence
Procedure, shortened: as §1

[3] = test system: chickweed (Stellaria media); experiment: Test B postemergence plant response; settings: Postemergence
Procedure, shortened: as §1

[4] = test system: canarygrass (Phalaris minor); experiment: Test B postemergence plant response; settings: Postemergence
Procedure, shortened: as §1

[5] = test system: Surinam grass (Brachiaria decumbens); experiment: Test B pre-/postemergence plant response
From the text: (§2) Seeds of plant species selected from blackgrass (Alopecurus myosuroides), downy bromegrass (Bromus tectorum), green foxtail (Setaria viridis), Italian ryegrass (Lolium multiflorum), wheat (Triticum aestivum), wild oat (Avena fatua), deadnettle (henbit deadnettle, Lamium amplexicaule), galium (catchweed bedstraw, Galium aparine), bermudagrass (Cynodon dactylon), Surinam grass (Brachiaria decumbens), cocklebur (Xanthium strumarium), corn (Zea mays), large crabgrass (Digitaria sanguinalis), woolly cupgrass (Eriochloa villosa), giant foxtail (Setaria faberii), goosegrass (Eleusine indica), johnsongrass (Sorghum halepense), kochia (Kochia scoparia), lambsquarters (Chenopodium album), morningglory (Ipomoea coccinea), nightshade (eastern black nightshade, Solanum ptycanthum), yellow nutsedge (Cyperus esculentus), pigweed (Amaranthus retroflexus), ragweed (common ragweed, Ambrosia elatior), Russian thistle (Salsola kali), soybean (Glycine max), sunflower (common oilseed sunflower, Helianthus annuus) and velvetleaf (Abutilon theophrasti) were planted into a blend of loam soil and sand and treated preemergence with test compounds formulated in a non-phytotoxic solvent mixture which included a surfactant.
(§3) At the same time, plants selected from these crop and weed species and also winter barley (Hordeum vulgare), canarygrass (Phalaris minor), chickweed (Stellaria media) and windgrass (Apera spica-venti) were planted in pots containing Redi-Earth® planting medium (Scotts Company, 14111 Scottslawn Road, Marysville, Ohio 43041) comprising spaghnum peat moss, vermiculite, wetting agent and starter nutrients and treated with postemergence applications of some of the test chemicals formulated in the same manner. Plants ranged in height from 2 to 18 cm (1- to 4-leaf stage) for postemergence treatments.
(§4) Treated plants and controls were maintained in a greenhouse for 13 to 15 days, after which time all treated plants were visually evaluated and compared to controls. Plant response ratings, summarized in Table B, are based on a scale of 0 to 100 where 0 is no effect and 100 is complete control. A dash (-) response means no test result.

[6] = test system: velvetleaf (Abutilon theophrasti); experiment: Test B pre-/postemergence plant response
From the text: as §2, §3, §4

[7] = test system: johnsongrass (Sorghum halepense); experiment: Test B pre-/postemergence plant response
From the text: as §2, §3, §4

[8] = test system: Italian ryegrass (Lolium multiflorum); experiment: Test B pre-/postemergence plant response
From the text: as §2, §3, §4

corn (Zea mays) = experiment: Test B pre-/postemergence plant response
From the text: as §2, §3, §4

soybean (Glycine max) = experiment: Test B pre-/postemergence plant response
From the text: as §2, §3, §4

[9] = test system: bermudagrass (Cynodon dactylon); experiment: Test B pre-/postemergence plant response
From the text: as §2, §3, §4

wild oat (Avena fatua) = experiment: Test B pre-/postemergence plant response
From the text: as §2, §3, §4

[10] = test system: woolly cupgrass (Eriochloa villosa); experiment: Test B pre-/postemergence plant response
From the text: as §2, §3, §4

[11] = test system: ragweed (common ragweed, Ambrosia elatior); experiment: Test B pre-/postemergence plant response
From the text: as §2, §3, §4

[12] = test system: yellow nutsedge (Cyperus esculentus); experiment: Test B pre-/postemergence plant response
From the text: as §2, §3, §4

[13] = test system: blackgrass (Alopecurus myosuroides); experiment: Test B pre-/postemergence plant response
From the text: as §2, §3, §4

[14] = test system: large crabgrass (Digitaria sanguinalis); experiment: Test B pre-/postemergence plant response
From the text: as §2, §3, §4

[15] = test system: lambsquarters (Chenopodium album); experiment: Test B pre-/postemergence plant response
From the text: as §2, §3, §4

[16] = 31 g ai/ha, scale 0 to 100 (0 no effect, 100 complete control)
[17] = 62 g ai/ha, scale 0 (no effect) to 100 (complete control), 13 to 15 days
[18] = 125 g ai/ha, visual rating after 13 to 15 days, scale 0 (no effect) to 100 (complete control)
[19] = 250 g ai/ha, Preemergence, 0 to 100 scale
[20] = Postemergence, 31 g ai/ha, scale 0 to 100 (0 no effect, 100 complete control)
[21] = Postemergence, 62 g ai/ha, scale 0 (no effect) to 100 (complete control), 13 to 15 days
[22] = Postemergence, 125 g ai/ha, visual rating after 13 to 15 days, scale 0 (no effect) to 100 (complete control)
[23] = Postemergence, 250 g ai/ha, scale 0 to 100
[24] = Preemergence, 31 g ai/ha, scale 0 to 100 (0 no effect, 100 complete control)
[25] = Preemergence, 62 g ai/ha, scale 0 to 100, 0 no effect, 100 complete control
[26] = Preemergence, 125 g ai/ha, 0 to 100 scale

## Cc1cccc(-n2c(-c3ccccc3)ncc(C(=O)C3=C(O)CCCC3=O)c2=O)c1C [Compound 27]
[1]; [16]
  Plant response rating, Windgrass: 10
[1]; [17]
  Plant response rating, Windgrass: 10
[1]; [18]
  Plant response rating, Windgrass: 50
[1]; 250 g ai/ha, scale 0 to 100
  Windgrass plant response rating: 60
[2]; [16]
  Plant response rating, Barley: 0
[2]; [17]
  Plant response rating, Barley: 0
[2]; 125 g ai/ha, scale 0 to 100 (0 no effect, 100 complete control), 13 to 15 days
  Plant response rating, Barley: 10
[2]; 250 g ai/ha, scale 0 to 100
  Barley plant response rating: 20
[3]; [16]
  Plant response rating, Chickweed: 40
[3]; [17]
  Plant response rating, Chickweed: 45
[3]; [18]
  Plant response rating, Chickweed: 50
[3]; 250 g ai/ha, scale 0 to 100
  Chickweed plant response rating: 80
[4]; [16]
  Plant response rating, Canarygrass: 10
[4]; [17]
  Plant response rating, Canarygrass: 10
[4]; [18]
  Plant response rating, Canarygrass: 30
[4]; 250 g ai/ha, scale 0 to 100
  Canarygrass plant response rating: 50
[5]; [19]
  Plant response rating, Surinam Grass: 95
[5]; [20]
  Plant response rating, Surinam Grass: 50
[5]; [21]
  Plant response rating, Surinam Grass: 70
[5]; [22]
  Plant response rating, Surinam Grass: 80
[5]; [23]
  Surinam Grass plant response rating: 80
[5]; [24]
  Plant response rating, Surinam Grass: 0
[5]; [25]
  Plant response rating, Surinam Grass: 20
[5]; [26]
  Surinam Grass plant response rating: 60
[6]; [19]
  Plant response rating, Velvetleaf: 95
[6]; [20]
  Plant response rating, Velvetleaf: 50
[6]; [21]
  Plant response rating, Velvetleaf: 60
[6]; [22]
  Plant response rating, Velvetleaf: 80
[6]; [23]
  Velvetleaf plant response rating: 90
[6]; [24]
  Plant response rating, Velvetleaf: 55
[6]; [25]
  Plant response rating, Velvetleaf: 85
[6]; [26]
  Velvetleaf plant response rating: 90
[7]; [19]
  Plant response rating, Johnsongrass: 85
[7]; [20]
  Plant response rating, Johnsongrass: 40
[7]; [21]
  Plant response rating, Johnsongrass: 45
[7]; [22]
  Plant response rating, Johnsongrass: 45
[7]; [23]
  Johnsongrass plant response rating: 80
[7]; [24]
  Plant response rating, Johnsongrass: 0
[7]; [25]
  Plant response rating, Johnsongrass: 5
[7]; [26]
  Johnsongrass plant response rating: 50
[8]; [19]
  Plant response rating, Ryegrass, Italian: 0
[8]; [20]
  Plant response rating, Ryegrass, Italian: 0
[8]; [21]
  Plant response rating, Ryegrass, Italian: 5
[8]; [22]
  Plant response rating, Ryegrass, Italian: 5
[8]; [23]
  Ryegrass, Italian plant response rating: 10
[8]; [24]
  Plant response rating, Ryegrass, Italian: 0
[8]; [25]
  Plant response rating, Ryegrass, Italian: 0
[8]; [26]
  Ryegrass, Italian plant response rating: 0
Corn (Zea mays); [19]
  Plant response rating, Corn: 0
Corn (Zea mays); [20]
  Plant response rating, Corn: 35
Corn (Zea mays); [21]
  Plant response rating, Corn: 40
Corn (Zea mays); [22]
  Plant response rating, Corn: 50
Corn (Zea mays); [23]
  Corn plant response rating: 70
Corn (Zea mays); [24]
  Plant response rating, Corn: 0
Corn (Zea mays); [25]
  Plant response rating, Corn: 0
Corn (Zea mays); [26]
  Corn plant response rating: 0
Soybean (Glycine max); [19]
  Plant response rating, Soybean: 90
Soybean (Glycine max); [20]
  Plant response rating, Soybean: 95
Soybean (Glycine max); [21]
  Plant response rating, Soybean: 95
Soybean (Glycine max); [22]
  Plant response rating, Soybean: 95
Soybean (Glycine max); [23]
  Soybean plant response rating: 100
Soybean (Glycine max); [24]
  Plant response rating, Soybean: 70
Soybean (Glycine max); [25]
  Plant response rating, Soybean: 70
Soybean (Glycine max); [26]
  Soybean plant response rating: 80
[9]; [19]
  Plant response rating, Bermudagrass: 100
[9]; [20]
  Plant response rating, Bermudagrass: 70
[9]; [21]
  Plant response rating, Bermudagrass: 90
[9]; Postemergence, 125 g ai/ha, scale 0 to 100 (0 no effect, 100 complete control), 13 to 15 days
  Plant response rating, Bermudagrass: 100
[9]; [23]
  Bermudagrass plant response rating: 100
[9]; [24]
  Plant response rating, Bermudagrass: 70
[9]; [25]
  Plant response rating, Bermudagrass: 98
[9]; [26]
  Bermudagrass plant response rating: 100
Wild oat (Avena fatua); [19]
  Plant response rating, Oat, Wild: 50
Wild oat (Avena fatua); [20]
  Plant response rating, Oat, Wild: 45
Wild oat (Avena fatua); [21]
  Plant response rating, Oat, Wild: 50
Wild oat (Avena fatua); [22]
  Plant response rating, Oat, Wild: 50
Wild oat (Avena fatua); [23]
  Oat, Wild plant response rating: 65
Wild oat (Avena fatua); [24]
  Plant response rating, Oat, Wild: 0
Wild oat (Avena fatua); [25]
  Plant response rating, Oat, Wild: 0
Wild oat (Avena fatua); [26]
  Oat, Wild plant response rating: 30
[10]; [19]
  Plant response rating, Cupgrass, Woolly: 80
[10]; [20]
  Plant response rating, Cupgrass, Woolly: 60
[10]; [21]
  Plant response rating, Cupgrass, Woolly: 60
[10]; [22]
  Plant response rating, Cupgrass, Woolly: 70
[10]; [23]
  Cupgrass, Woolly plant response rating: 80
[10]; [24]
  Plant response rating, Cupgrass, Woolly: 0
[10]; [25]
  Plant response rating, Cupgrass, Woolly: 0
[10]; [26]
  Cupgrass, Woolly plant response rating: 60
[11]; [19]
  Plant response rating, Ragweed: 100
[11]; [20]
  Plant response rating, Ragweed: 85
[11]; [21]
  Plant response rating, Ragweed: 98
[11]; [22]
  Plant response rating, Ragweed: 100
[11]; [23]
  Ragweed plant response rating: 100
[11]; [24]
  Plant response rating, Ragweed: 85
[11]; [25]
  Plant response rating, Ragweed: 85
[11]; [26]
  Ragweed plant response rating: 100
[12]; [19]
  Plant response rating, Nutsedge, Yellow: 90
[12]; [20]
  Plant response rating, Nutsedge, Yellow: 30
[12]; [21]
  Plant response rating, Nutsedge, Yellow: 40
[12]; [22]
  Plant response rating, Nutsedge, Yellow: 50
[12]; [23]
  Nutsedge, Yellow plant response rating: 55
[12]; [24]
  Plant response rating, Nutsedge, Yellow: 0
[12]; [25]
  Plant response rating, Nutsedge, Yellow: 20
[12]; [26]
  Nutsedge, Yellow plant response rating: 30
[13]; [19]
  Plant response rating, Blackgrass: 30
[13]; [20]
  Plant response rating, Blackgrass: 0
[13]; [21]
  Plant response rating, Blackgrass: 5
[13]; [22]
  Plant response rating, Blackgrass: 45
[13]; [23]
  Blackgrass plant response rating: 50
[13]; [24]
  Plant response rating, Blackgrass: 0
[13]; [25]
  Plant response rating, Blackgrass: 0
[13]; [26]
  Blackgrass plant response rating: 10
[14]; [19]
  Plant response rating, Crabgrass, Large: 100
[14]; [20]
  Plant response rating, Crabgrass, Large: 50
[14]; [21]
  Plant response rating, Crabgrass, Large: 50
[14]; [22]
  Plant response rating, Crabgrass, Large: 60
[14]; [23]
  Crabgrass, Large plant response rating: 60
[14]; [24]
  Plant response rating, Crabgrass, Large: 5
[14]; [25]
  Plant response rating, Crabgrass, Large: 80
[14]; [26]
  Crabgrass, Large plant response rating: 100
[15]; [19]
  Plant response rating, Lambsquarters: 100
[15]; [20]
  Plant response rating, Lambsquarters: 90
[15]; [21]
  Plant response rating, Lambsquarters: 95
[15]; [22]
  Plant response rating, Lambsquarters: 95
[15]; [23]
  Lambsquarters plant response rating: 98
[15]; [24]
  Plant response rating, Lambsquarters: 100
[15]; [25]
  Plant response rating, Lambsquarters: 100
[15]; [26]
  Lambsquarters plant response rating: 100
